Assay results published in patent US20260293949A1, “CARBONATION SENSATION IMPARTING OR ENHANCING AGENT” (TAKASAGO INTERNATIONAL CORPORATION, priority 2022, published 2026).

Assay: Sensory evaluation of fizziness enhancement in carbonated water (WILKINSON TANSAN), specialized panelists
Format: in vivo
Settings: for Fizziness enhancement evaluation result: average score of seven panelists
Experimental: In the following Examples, the action and effect were verified using a value obtained by calculating an average score of scores for imparting or enhancing fizziness by sensory evaluation conducted by specialized panelists. The expression “1 point” in the evaluation is the evaluation in the case where no component is added at all (no addition).
Diethyl sebacate (manufactured by Inoue Perfumery Mfg. Co., Ltd., the same applies to the following Examples) was separately added to “WILKINSON (registered trademark) TANSAN (manufactured by Asahi Soft Drinks Co., Ltd.)” so as to reach the concentrations shown in Table 2 below, and sensory evaluation was performed by seven specialized panelists to determine the extent to which fizziness was enhanced as compared with a control in which diethyl sebacate was not added.
Diisobutyl adipate (manufactured by Inoue Perfumery Mfg. Co., Ltd., the same applies to the following Examples) was separately added to “WILKINSON (registered trademark) TANSAN (manufactured by Asahi Soft Drinks Co., Ltd.)” so as to reach the concentrations shown in Table 3 below, and sensory evaluation was performed by seven specialized panelists to determine the extent to which fizziness was enhanced as compared with a control in which diisobutyl adipate was not added.
Dimethyl sebacate (manufactured by Tokyo Chemical Industry Co., Ltd.) was separately added to “WILKINSON (registered trademark) TANSAN (manufactured by Asahi Soft Drinks Co., Ltd.)” so as to reach the concentrations shown in Table 4 below, and sensory evaluation was performed by seven specialized panelists to determine the extent to which fizziness was enhanced as compared with a control in which dimethyl sebacate was not added.
Dipropyl adipate (manufactured by Tokyo Chemical Industry Co., Ltd.) was separately added to “WILKINSON (registered trademark) TANSAN (manufactured by Asahi Soft Drinks Co., Ltd.)” so as to reach the concentrations shown in Table 5 below, and sensory evaluation was performed by seven specialized panelists to determine the extent to which fizziness was enhanced as compared with a control in which dipropyl adipate was not added.

SMILES | amelioration of mouthfeel (in words) | fizziness enhancement (in words) | Fizziness enhancement evaluation result (0.1 ppm, 1 to 5) [points] | Fizziness enhancement evaluation result (0.5 ppm, 1 to 5) [points] | Fizziness enhancement evaluation result (1 ppm, 1 to 5) [points] | Fizziness enhancement evaluation result (5 ppm, 1 to 5) [points] | Fizziness enhancement evaluation result (10 ppm, 1 to 5) [points] | Fizziness enhancement evaluation result (20 ppm, 1 to 5) [points] | Fizziness enhancement evaluation result (50 ppm, 1 to 5) [points] | Fizziness enhancement evaluation result (100 ppm, 1 to 5) [points] | Fizziness enhancement evaluation result (0.005 ppm, 1 (not enhanced) to 5 (extremely enhanced)) [points] | Fizziness enhancement evaluation result (0.01 ppm, 1 to 5) [points]
CCCOC(=O)CCCCC(=O)OCCC [Dipropyl adipate, dipropyl adipate] | effect of ameliorating the mouthfeel was also confirmed | fizziness of carbonated water can be enhanced | 1.1 | 1.4 | 1.9 | 2.6 | 3.0 | 1.7 | 1.4 | 1.1 | – | –
COC(=O)CCCCCCCCC(=O)OC [Dimethyl sebacate, dimethyl sebacate] | effect of ameliorating the mouthfeel was also confirmed | fizziness of carbonated water can be enhanced | 1.1 | 1.6 | 2.0 | 2.4 | 3.1 | 2.6 | 1.4 | 1.3 | – | –
CC(C)COC(=O)CCCCC(=O)OCC(C)C [Diisobutyl adipate, diisobutyl adipate] | effect of ameliorating the mouthfeel was also confirmed | fizziness of carbonated water can be enhanced | 3.4 | 3.6 | 3.4 | 1.7 | 1.3 | – | – | – | 1.1 | 1.6
